Assay results reported in patent US9206229B2, “Bortezomib esters and formulations thereof” (CHEMI S.P.A., priority 2012, dated 2015).
Read-outs that look alike come from different tables or passages of the source.

Assays:
[1] = cited from earlier work
[2] = Stability tests of (5+5) bis bortezomib tartrate III in solid form (HPLC purity); assay type: physicochemical
Method: (5+5) Bis-bortezomib tartrate III, prepared as described in example 2, and the solid formulations containing (5+5) bis-bortezomib tartrate III, prepared as described in examples 3 and 4, were put into glass vials with screw plug and hermetic closure and undergone stability tests under the following conditions: […]
temperature 25° C. and 60% relative humidity temperature 40° C. and 75% relative humidity
The HPLC method used for the purity analysis was the following:
• UV Detector: SPD 10AVP • auto-sampler: SIL-ADVP Wavelength: 270 nm Column: Biobasic-18-Peek Bio-inert • length: 250 mm • I.D.: 2.1 mm • Particle size: 5 μm • (thermo scientific Cat.N.72105-252168 or equivalent) Injection: 3 μl Column temperature: room Sampler temperature: room Flow rate: 0.3 ml/min Mobile phase: eluent A: 95% gradient • Eluent B: 5% Analysis time: 60 minutes Eluent A: 0.1% v/v formic acid in water for HPLC Eluent B: 0.1% v/v formic acid in acetonitrile for gradient Diluent: acetonitrile:water for HPLC=80:20 Blank: diluent Gradient program:
Weigh about 50 mg sample and transfer the substance into a 100 ml flask. Dissolve and bring to volume with diluent. Sonicate up to complete dissolution (analyte content about 0.5 mg/ml).
Calculate the percentage of each known and unknown impurity as percentage area by using the following formula (peaks of the blank and peaks with area <0.05% to be ignored).
[formula] Axc: peak area of the impurity in the sample Atot: total area of the peaks of the chromatogram Purity(A%)=100−Σ1Imp (i) The peak corresponding to bortezomib is eluted at 28 minutes±2.
In the following tables the data obtained from the stability tests after two and four weeks are reported.

[3] = Stability tests of powders stored at 40° C. for months (examples 12, 14, 17), HPLC purity; assay type: physicochemical; conditions: powder
Method: Samples of the powder obtained in example 11 were stored in glass vials with screw cap and hermetic closure and undergone stability tests at 40° C. and 75% relative humidity. Their purity was checked during the time. In the following table the purity data of the samples under stability test obtained by using the HPLC method described in example 9 are reported.
Samples of the powder obtained in example 13 were stored in glass vials with screw cap and hermetic closure and undergone stability tests at 40° C. and 75% relative humidity. In the following table the purity data obtained by using the HPLC method described in example 9 are reported.
In the following table the data of the HPLC purity analysis of the powder at time 0 and after 1 month, 2 months and 3 months of storage in glass vials with screw plug and hermetic closure at 40° C. are reported.

[4] = 2 weeks 25° C., 60% relative humidity
[5] = 2 weeks 40° C., 75% relative humidity
[6] = 1 month 40° C. (75% relative humidity stated in examples 12, 14)
[7] = 2 months 40° C. (75% relative humidity stated in examples 12, 14)
[8] = 3 months 40° C. (75% relative humidity stated in examples 12, 14)

| HPLC peak area, relative retention time 0.87 (retention time 23.58 min) [3, 7] [A%] | HPLC peak area, relative retention time 1.037 (retention time 28.00 min) [3, 7] [A%] | HPLC peak area, relative retention time 1.07 (retention time 28.77 min) [3, 7] [A%] | HPLC purity, peak at relative retention time 1.00 (retention time 27.00 min) [3, 7] [A%] | HPLC peak area, relative retention time 0.87 (retention time 23.58 min) [3, 8] [A%] | HPLC peak area, relative retention time 0.95 (retention time 25.78 min) [3, 8] [A%] | HPLC peak area, relative retention time 1.037 (retention time 28.00 min) [3, 8] [A%] | HPLC purity, peak at relative retention time 1.00 (retention time 27.00 min) [3, 8] [A%] | HPLC peak area, relative retention time 1.037 (retention time 28.00 min) ([3]; t0) [A%] | HPLC purity, peak at relative retention time 1.00 (retention time 27.00 min) ([3]; t0) [A%] | Structure (SMILES) | other results |
| --- | --- | --- | --- | --- | --- | --- | --- | --- | --- | --- | --- |
| – | – | – | – | – | – | – | – | – | – | CC(C)C[C@H](NC(=O)[C@H](Cc1ccccc1)NC(=O)c1cnccn1)B(O)O [bortezomib] | time for which stable on storage ([1]; stored at 2-8° C.): 3-6 months; HPLC purity ([1]; stored at −20° C. for more than 2 years): > 97%; time for which stable on storage ([1]; stored at −20° C.): more than 2 years |
| – | – | – | – | – | – | – | – | – | – | CC(C)C[C@H](NC(=O)C(Cc1ccccc1)NC(=O)c1cnccn1)B1OC(=O)C(C2OB([C@H](CC(C)C)NC(=O)C(Cc3ccccc3)NC(=O)c3cnccn3)OC2=O)O1 (stereo partly drawn) [Example 2, (5+5) Bis-Bortezomib L-Tartrate III] | HPLC peak area, relative retention time 0.91 (retention time 24.57 min) [2, 4]: 0.02 A%; HPLC peak area, relative retention time 0.95 (retention time 25.78 min) [2, 4]: 0.02 A%; HPLC peak area, relative retention time 1.07 (retention time 28.77 min) [2, 4]: 0.01 A%; HPLC purity, peak at relative retention time 1.00 (retention time 27.00 min) [2, 4]: 99.94 A%; HPLC peak area, relative retention time 0.95 (retention time 25.78 min) [2, 5]: 0.18 A%; HPLC peak area, relative retention time 1.07 (retention time 28.77 min) [2, 5]: 0.01 A%; HPLC purity, peak at relative retention time 1.00 (retention time 27.00 min) [2, 5]: 99.82 A%; HPLC peak area, relative retention time 0.91 (retention time 24.57 min) ([2]; t0): 0.02 A%; HPLC peak area, relative retention time 0.95 (retention time 25.78 min) ([2]; t0): 0.07 A%; HPLC peak area, relative retention time 1.07 (retention time 28.77 min) ([2]; t0): 0.01 A%; HPLC purity, peak at relative retention time 1.00 (retention time 27.00 min) ([2]; t0): 99.90 A% |
| 0.61 | 0.34 | 0.13 | 98.85 | 0.07 | 0.04 | 0.02 | 99.85 | 0.02 | 99.94 | CC(C)C[C@H](NC(=O)[C@H](Cc1ccccc1)NC(=O)c1cnccn1)B1OC(=O)[C@@H]([C@H]2OB([C@H](CC(C)C)NC(=O)[C@H](Cc3ccccc3)NC(=O)c3cnccn3)OC2=O)O1 [Example 13, (5+5) Bis Bortezomib L-Tartrate III] | HPLC peak area, relative retention time 0.87 (retention time 23.58 min) [3, 6]: 0.05 A%; HPLC peak area, relative retention time 1.037 (retention time 28.00 min) [3, 6]: 0.02 A%; HPLC purity, peak at relative retention time 1.00 (retention time 27.00 min) [3, 6]: 99.93 A%; HPLC peak area, relative retention time 0.95 (retention time 25.78 min) [3, 7]: 0.07 A%; HPLC peak area, relative retention time 0.87 (retention time 23.58 min) ([3]; t0): 0.02 A% |
| 0.15 | 0.02 | 0.04 | 99.67 | 0.66 | 0.07 | 0.38 | 98.72 | 0.01 | 99.99 | CC(C)C[C@H](NC(=O)C(Cc1ccccc1)NC(=O)c1cnccn1)B1OC(=O)C(C2OB([C@H](CC(C)C)NC(=O)C(Cc3ccccc3)NC(=O)c3cnccn3)OC2=O)O1 (stereo partly drawn) [Example 11, (5+5) Bis Bortezomib L-Tartrate III] | HPLC peak area, relative retention time 1.07 (retention time 28.77 min) [3, 8]: 0.18 A% |
